From ChEMBL document CHEMBL1201862, “PubChem BioAssay data set” (2004)
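Interpolation was linear, between the two tested concentrations surrounding the appropriate level; five concentrations were tested over 48 hours in 96-well plates. Here, GI50 denotes the concentration required for 50% inhibition of growth.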 The source made the active and inactive calls. Rule as the data show it: active = GI50 up to about 1.1 µM and inactive = higher.

Legend:
Test in all cases: NCI-60 cell line screen, 48 h
RXF 393 = tested on: RXF 393
SNB-19 = tested on: SNB-19
HOP-92 = tested on: HOP-92
SN12C = tested on: SN12C
MDA-MB-231 = tested on: MDA-MB-231
KM12 = tested on: KM12
Hs-578T = tested on: Hs-578T
DU-145 = tested on: DU-145
A549 = tested on: A549
K562 = tested on: K562
UO-31 = tested on: UO-31
NCI-H460 = tested on: NCI-H460
SW-620 = tested on: SW-620
SK-MEL-5 = tested on: SK-MEL-5
MDA-MB-435 = tested on: MDA-MB-435

Structure (SMILES)	GI50 (RXF 393)	GI50 (SNB-19)	GI50 (HOP-92)	GI50 (SN12C)	GI50 (MDA-MB-231)	GI50 (KM12)	GI50 (Hs-578T)	GI50 (DU-145)	GI50 (A549)	GI50 (K562)	GI50 (UO-31)	GI50 (NCI-H460)	GI50 (SW-620)	GI50 (SK-MEL-5)	GI50 (MDA-MB-435)
CC(=O)OCC1OC(n2c(-c3ccc(Cl)cc3)cc(-c3ccccc3)c(C#N)c2=S)C(OC(C)=O)C(OC(C)=O)C1OC(C)=O (centres undefined)	13.3 µM (inactive)	8.53 µM (inactive)	19.6 µM (inactive)	11.2 µM (inactive)	4.33 µM (inactive)	18.5 µM (inactive)	2.71 µM (inactive)	15.7 µM (inactive)	14.5 µM (inactive)	3.66 µM (inactive)	23.5 µM (inactive)	5.78 µM (inactive)	3.3 µM (inactive)	11.4 µM (inactive)	12.7 µM (inactive)
CCOc1cc(/C=N\O)cc(/C=N/O)c1O	14.5 µM (inactive)	39.2 µM (inactive)	23.8 µM (inactive)	51.6 µM (inactive)	69.8 µM (inactive)	54.3 µM (inactive)	31.3 µM (inactive)	68.5 µM (inactive)	29.5 µM (inactive)	61.5 µM (inactive)	1.2 µM (inactive)	31.9 µM (inactive)	34.6 µM (inactive)	17.7 µM (inactive)	32.3 µM (inactive)
CC1(C)CCc2c(ccc(C(=O)/C=C/c3ccc(O)cc3)c2O)O1 [DORSMANNIN A]	10.6 µM (inactive)	13.9 µM (inactive)	11.2 µM (inactive)	10.9 µM (inactive)	9.25 µM (inactive)		14.1 µM (inactive)	9.25 µM (inactive)	11.9 µM (inactive)	27.8 µM (inactive)	12.3 µM (inactive)	12.1 µM (inactive)	13 µM (inactive)	11.2 µM (inactive)	10.3 µM (inactive)
COc1ccc(CCCC(=O)O)c(C)c1	37.1 µM (inactive)	40.1 µM (inactive)	27.4 µM (inactive)	32 µM (inactive)	36.1 µM (inactive)	36.4 µM (inactive)	43.5 µM (inactive)	21.1 µM (inactive)	58.6 µM (inactive)	39.3 µM (inactive)	> 100 µM (inactive)	11.7 µM (inactive)	59.2 µM (inactive)	40.3 µM (inactive)	32.8 µM (inactive)
CCOC(=O)CSc1c(C(=O)OCC)c(=O)n(-c2ccccc2)c(=S)n1-c1ccccc1		34.7 µM (inactive)	0.0371 µM (active)	29.6 µM (inactive)		59.2 µM (inactive)	33 µM (inactive)	82 µM (inactive)	32.1 µM (inactive)	7.53 µM (inactive)	26.9 µM (inactive)	21.6 µM (inactive)	9.42 µM (inactive)	23.5 µM (inactive)	41.6 µM (inactive)
CC1(C)OP(=O)(O)CC1=O		> 100 µM (inactive)	> 100 µM (inactive)	> 100 µM (inactive)		> 100 µM (inactive)	> 100 µM (inactive)	> 100 µM (inactive)	> 100 µM (inactive)	> 100 µM (inactive)	> 100 µM (inactive)	> 100 µM (inactive)	> 100 µM (inactive)	> 100 µM (inactive)	> 100 µM (inactive)
Cc1cn(Cc2cnnn2CC2OC(n3cc(C)c(=O)[nH]c3=O)CC2O)c(=O)[nH]c1=O (centres undefined)	> 100 µM (inactive)	> 100 µM (inactive)	> 100 µM (inactive)	> 100 µM (inactive)	> 100 µM (inactive)	> 100 µM (inactive)	> 100 µM (inactive)	> 100 µM (inactive)	> 100 µM (inactive)		> 100 µM (inactive)		> 100 µM (inactive)	> 100 µM (inactive)	> 100 µM (inactive)
N#CC1(C#N)C2C=CC(C3CCC=C32)C1(C#N)C#N (centres undefined)	> 10 µM (inactive)	> 10 µM (inactive)	> 10 µM (inactive)	> 10 µM (inactive)	> 10 µM (inactive)	> 10 µM (inactive)	> 10 µM (inactive)	> 10 µM (inactive)	> 10 µM (inactive)	3.37 µM (inactive)	> 4.32 µM (inactive)	> 10 µM (inactive)	1.77 µM (inactive)	> 10 µM (inactive)	> 10 µM (inactive)
CCCCC1=C(C(=O)N2CCOCC2)C2(OCCO2)C1=O	21.1 µM (inactive)	14 µM (inactive)	23.1 µM (inactive)	13.5 µM (inactive)		20.4 µM (inactive)	31.7 µM (inactive)	33 µM (inactive)	18 µM (inactive)		15.5 µM (inactive)	24.8 µM (inactive)	27.3 µM (inactive)	16.5 µM (inactive)	18.5 µM (inactive)
COC1/C=C/C(C)C(C(C)C(OC)C(C)CCC(=O)C(C)C(C/C=C/N(C)C=O)OC)OC(=O)/C=C/C=C(\C)CC(OC)CC2=CC(=O)O[C@H](C2)C(C)C(OC)CC(OC)/C=C/C(C)C(OC)C1 (some centres undefined)	0.0148 µM (active)	0.0149 µM (active)	0.0142 µM (active)	0.014 µM (active)		0.0094 µM (active)	0.0158 µM (active)	0.191 µM (active)	0.0288 µM (active)		0.0125 µM (active)	< 0.005 µM (active)	0.00766 µM (active)	0.00518 µM (active)	0.0286 µM (active)
COc1ccc(NCC(=O)Nn2c(-c3ccccc3)nc3ccccc3c2=O)cc1	> 10 µM (inactive)	50.2 µM (inactive)	25.4 µM (inactive)	36.6 µM (inactive)	19 µM (inactive)	70.8 µM (inactive)	28.1 µM (inactive)	> 100 µM (inactive)	53.7 µM (inactive)	24.5 µM (inactive)	> 100 µM (inactive)	51.1 µM (inactive)	28.2 µM (inactive)	14.8 µM (inactive)	51.8 µM (inactive)
FC(F)(F)C(C1=NC(C(F)(F)F)(C(F)(F)F)N=C(N2CCOCC2)O1)C(F)(F)F	15.7 µM (inactive)	25.9 µM (inactive)	25.8 µM (inactive)	11.1 µM (inactive)	14.4 µM (inactive)	39.3 µM (inactive)	32.4 µM (inactive)	35.5 µM (inactive)	18.5 µM (inactive)		25.4 µM (inactive)	29 µM (inactive)	14.2 µM (inactive)	11.9 µM (inactive)	15.3 µM (inactive)
O=c1c(-c2ccccc2)c(SCCCN2CCCCC2)n(-c2ccccc2)c(=S)n1-c1ccccc1	14.3 µM (inactive)		12.1 µM (inactive)		14.5 µM (inactive)	19.4 µM (inactive)	34.2 µM (inactive)	17.7 µM (inactive)		14.1 µM (inactive)		16.4 µM (inactive)	19.6 µM (inactive)	16 µM (inactive)	17.7 µM (inactive)
C=CCNC(=S)N/N=C1\C(=O)Nc2ccc([N+](=O)[O-])cc21	16.8 µM (inactive)	55.7 µM (inactive)	44.2 µM (inactive)	35.5 µM (inactive)	> 100 µM (inactive)	46.6 µM (inactive)	> 100 µM (inactive)	31.4 µM (inactive)	34.2 µM (inactive)	32.1 µM (inactive)	31.2 µM (inactive)	16.6 µM (inactive)	82 µM (inactive)	30.1 µM (inactive)	89.3 µM (inactive)
N#Cc1c(-c2ccccc2)cn(C(=O)c2ccccc2)c1N		> 100 µM (inactive)	> 100 µM (inactive)	> 100 µM (inactive)	> 100 µM (inactive)	> 100 µM (inactive)	> 100 µM (inactive)	> 100 µM (inactive)	> 100 µM (inactive)	> 100 µM (inactive)	> 100 µM (inactive)		> 100 µM (inactive)	> 100 µM (inactive)	> 100 µM (inactive)
c1ccc(CSC(SCc2ccccc2)c2cccc3ccccc23)cc1	> 10 µM (inactive)	> 10 µM (inactive)		> 10 µM (inactive)	> 10 µM (inactive)	> 10 µM (inactive)	> 10 µM (inactive)	> 10 µM (inactive)	> 10 µM (inactive)	> 10 µM (inactive)	> 10 µM (inactive)	> 10 µM (inactive)	> 10 µM (inactive)	> 10 µM (inactive)	> 10 µM (inactive)
O=C(O)C(CCc1ccccc1)N1C(=O)c2ccccc2C1=O (centres undefined)	> 100 µM (inactive)	> 100 µM (inactive)	> 100 µM (inactive)	> 100 µM (inactive)	> 100 µM (inactive)	> 100 µM (inactive)		> 100 µM (inactive)	> 100 µM (inactive)	> 100 µM (inactive)	> 100 µM (inactive)	> 100 µM (inactive)	> 100 µM (inactive)	> 100 µM (inactive)	> 100 µM (inactive)
O=C(NC(COC(=O)C(Cc1ccccc1)NC(=O)c1ccccc1)Cc1ccccc1)c1ccccc1 (centres undefined)		25.6 µM (inactive)	> 50 µM (inactive)			> 50 µM (inactive)	> 50 µM (inactive)		> 50 µM (inactive)	> 50 µM (inactive)	> 50 µM (inactive)	> 50 µM (inactive)	> 50 µM (inactive)		> 50 µM (inactive)
C=C1CC(C)(COc2ccc3c(C)cc(=O)oc3c2)OC1=O (centres undefined)		13.7 µM (inactive)	1.09 µM (active)	3.86 µM (inactive)	3.92 µM (inactive)	3.66 µM (inactive)	3.56 µM (inactive)	2.36 µM (inactive)	8.79 µM (inactive)	0.313 µM (active)	6.7 µM (inactive)	5.3 µM (inactive)	0.431 µM (active)	1.31 µM (inactive)	1.28 µM (inactive)
